Laboratory results taken from patent US7335495B2, “Process for the isolation of pharmaceutical compound cyclosporin a from fungus fusarium nivale” (Council of Scientific and Industrial Research, priority 2002, dated 2008).

Experiments:
T. tonsurans = experiment: MIC by disk diffusion method, T. tonsurans; assay type: cell-based, Trichophyton tonsurans; details: disks of 50, 25, 12.5, 6.25 and 3.12 μg, 42-120 hrs at room temperature
Description: (§1) Czapek Malt Agar (Himedia laboratories Ltd.) was used for culturing Tricholphytos mentagrophytes T. tonsurans, T. violaceum, Aspergillus fresnil and A niger, A. japonicus. Mucological Agar (Himedia Laboratories Ltd was used for Cryptocaccus neoformans and Candida sp.
(§2) Pathogeiic fungal strains of yeast and filamentous fungi (Identified and gifted by Dr. Savio from Goa Medical College, Bamoblim) were used for the test. Strains of Aspergillus were isolated from the infected wheat bread with sterile needles; fungal material was surface sterilized using 0.5% sodium hypochlorite for 2-3 minutes and then washed with small brush in sterile distilled water. This Aspergillus species was described earlier as food spoilage (Bhosale et. Al., 1999). […]
(§3) Innocula were adjusted to 50 μl of Cryptococcus neoformans, Candida sp., Trichophyrou tonsurans, T. violaceum and T. mentagrophytes, Aspergillus fresenil, A. niger, A. japonicus and spread on the appropriate plates, excess moisture was allowed to be absorbed for 10 minutes before applying on disks. […] Test plates were incubated for 42-120 hrs. at room temperature to obtain maximum growth and MIC was determined as lowest concentration of compound and antifungal agents resulting in a cleas zone of growth inhibition. […]

A. niger = experiment: MIC by disk diffusion method, A. niger; assay type: cell-based, Aspergillus niger; details: disks of 50, 25, 12.5, 6.25 and 3.12 μg, 42-120 hrs at room temperature
Description: as §1, §2, §3

Aspergillus fresenii = experiment: MIC by disk diffusion method, Aspergillus fresenii; assay type: cell-based; details: disks of 50, 25, 12.5, 6.25 and 3.12 μg, 42-120 hrs at room temperature
Description: as §1, §2, §3

A. japonicus = experiment: MIC by disk diffusion method, A. japonicus; assay type: cell-based, Aspergillus japonicus; details: disks of 50, 25, 12.5, 6.25 and 3.12 μg, 42-120 hrs at room temperature
Description: as §1, §2, §3

Cryptococcus neoformans = experiment: MIC by disk diffusion method, Cryptococcus neoformans; assay type: cell-based; details: Cryoticiecus Neoformans; disks of 50, 25, 12.5, 6.25 and 3.12 μg; 42-120 hrs at room temperature
Description: as §1, §2, §3

Candida sp. = experiment: MIC by disk diffusion method, Candida sp.; assay type: cell-based; details: disks of 50, 25, 12.5, 6.25 and 3.12 μg, 42-120 hrs at room temperature
Description: as §1, §2, §3

T. violaceum = experiment: MIC by disk diffusion method, T. violaceum; assay type: cell-based, Trichophyton violaceum; details: disks of 50, 25, 12.5, 6.25 and 3.12 μg, 42-120 hrs at room temperature
Description: as §1, §2, §3

Fusarium sp. = experiment: MIC by disk diffusion method, Fusarium sp.; assay type: cell-based; details: disks of 50, 25, 12.5, 6.25 and 3.12 μg, 42-120 hrs at room temperature
[1] = tested on: Trichophyton mentagrophytes; experiment: MIC by disk diffusion method, Trichophyton mentagrophytes; assay type: cell-based; details: disks of 50, 25, 12.5, 6.25 and 3.12 μg, 42-120 hrs at room temperature
Description: as §1, §2, §3

Compound	MIC, Disk Diffusion Method (T. tonsurans)	MIC, Disk Diffusion Method (A. niger)	MIC, Disk Diffusion Method (Aspergillus fresenii)	MIC, Disk Diffusion Method (A. japonicus)	MIC, Disk Diffusion Method (Cryptococcus neoformans)	MIC, Disk Diffusion Method (Candida sp.)	MIC, Disk Diffusion Method (T. violaceum)	MIC, Disk Diffusion Method (Fusarium sp.)	MIC, Disk Diffusion Method [1]
C[C@@H]1[C@H](O)[C@@H](C)/C=C/C=C/C=C/C=C/C=C/C=C/C=C/[C@H](O[C@@H]2O[C@H](C)[C@@H](O)[C@H](N)[C@@H]2O)C[C@@H]2O[C@](O)(C[C@@H](O)C[C@@H](O)[C@H](O)CC[C@@H](O)C[C@@H](O)CC(=O)O[C@H]1C)C[C@H](O)[C@H]2C(=O)O [Amphotericin B]	6.25-12.5 μg/disc^−1	6.25-12.5 μg/disc^−1	6.25-12.5 μg/disc^−1	6.25-12.5 μg/disc^−1	3.12-6.25 μg/disc^−1	3.12-6.25 μg/disc^−1	6.25-12.5 μg/disc^−1	12.5-25 μg/disc^−1	3.12-6.25 μg/disc^−1
C[C@@H]1[C@H](O)[C@@H](C)/C=C/C=C/CC/C=C/C=C/C=C/C=C/C(O[C@H]2O[C@H](C)[C@@H](O)[C@H](N)[C@@H]2O)CC2O[C@](O)(CC(O)C(O)CCC(O)CC(O)CC(O)CC(=O)O[C@H]1C)CC(O)C2C(=O)O (some centres unmarked) [Nystatin]					3.12-6.25 μg/disc^−1	3.12-6.25 μg/disc^−1			
